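Protocol summary: plate cells (96-well), add compound at 5 concentrations, incubate 48 h, interpolate endpoints linearly. The concentration for 50% growth inhibition is given as GI50.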 Calls of active or inactive are those of the source. Rule as the data show it: active = GI50 up to about 1.1 µM and inactive = higher.

The source of these data is ChEMBL document CHEMBL1201862, “PubChem BioAssay data set” (2004).

Some test systems named below: CCRF-CEM; HCT-15; HL-60; M14; MOLT-4; Malme-3M; NCI-H23; NCI-H460; RXF 393; SF-268; SF-539; SK-MEL-2; SK-OV-3; SW-620; U-251; UACC-257; UACC-62; MDA-MB-435; T47D; BT-549.
Common to all, as to experiment: NCI-60 cell line screen, 48 h

Take `COc1ccc(C2=Nc3ccccc3SC(C)C2)cc1` (stereo not given): the GI50 with CCRF-CEM is 33.4 µM (inactive); in the assay with HCT-15, over 100 µM; in the assay with HL-60, 46 µM (inactive); in the assay with M14, > 100 µM (inactive); with MOLT-4, 49.8 µM (inactive); with Malme-3M, > 100 µM (inactive). In addition, the GI50 in the assay with NCI-H23, in the assay on NCI-H460, with RXF 393, in the assay with SF-268, in the assay with SF-539 and with SK-MEL-2 was > 100 µM (inactive) each time. Also, the GI50 in the assay on SK-OV-3 was > 100 µM (inactive); in the assay on SW-620, > 100 µM (inactive); in the assay on U-251, 92.7 µM (inactive); with UACC-257, > 100 µM (inactive); with UACC-62, > 100 µM (inactive).

As to `COc1ccc(-c2c(C(C)=O)c(-c3ccccc3)n(C3OC(COC(C)=O)C(OC(C)=O)C(OC(C)=O)C3OC(C)=O)c(=S)c2C#N)cc1` (stereo not given), the GI50 was > 100 µM (inactive) in the assay on CCRF-CEM; over 100 µM with HCT-15; > 100 µM (inactive) with HL-60; > 100 µM (inactive) in the assay on M14; > 100 µM (inactive) with MDA-MB-435; > 100 µM (inactive) with MOLT-4. Also, the GI50 in the assay on Malme-3M, in the assay with NCI-H23, in the assay with NCI-H460, in the assay with RXF 393, with SF-268 and in the assay with SF-539 was > 100 µM (inactive) throughout. The GI50 in the assay with SK-OV-3, in the assay with SW-620, in the assay with T47D, in the assay on U-251, in the assay with UACC-257 and with UACC-62 was > 100 µM (inactive) throughout.

`O=c1[nH]c(=O)n(C2CC(O)C(COP(=O)(OCC(Cl)(Cl)Cl)OCC(Cl)(Cl)Cl)O2)cc1F` (stereo not given): the GI50 with CCRF-CEM was 0.195 µM (active); in the assay with HCT-15, over 56.1 µM; in the assay with HL-60, 5.85 µM (inactive); in the assay on M14 it was 2 µM (inactive); with MDA-MB-435, > 86.3 µM (inactive); in the assay on MOLT-4, 1.1 µM (active). In addition, the GI50 in the assay with Malme-3M was 6.05 µM (inactive); with NCI-H23, 8.63 µM (inactive); in the assay with NCI-H460, < 0.0226 µM (active); in the assay on SF-268 it was 1.24 µM (inactive); in the assay on SK-MEL-2, > 100 µM (inactive); in the assay on SK-OV-3, > 48.6 µM (inactive). Further, the GI50 in the assay with SW-620 was > 100 µM (inactive); in the assay on T47D it was > 50.8 µM (inactive); in the assay on U-251, 2.95 µM (inactive); with UACC-257, > 100 µM (inactive); in the assay on UACC-62, 0.396 µM (active).

With `Cc1nc2cccc(F)c2c(=O)n1-c1nnc(C(F)(F)F)s1`, the GI50 in the assay on CCRF-CEM was > 10 µM (inactive); in the assay on HCT-15, over 10 µM; in the assay with HL-60, > 10 µM (inactive); in the assay on M14 it was > 10 µM (inactive); in the assay with MDA-MB-435, > 10 µM (inactive); in the assay with MOLT-4, > 10 µM (inactive). For the same compound, the GI50 in the assay on NCI-H23, in the assay with NCI-H460, in the assay on RXF 393, with SF-268, in the assay with SF-539 and in the assay on SK-MEL-2 was > 10 µM (inactive) in each case. For the same compound, the GI50 in the assay on SK-OV-3, in the assay with SW-620, with T47D, with U-251, with UACC-257 and in the assay with UACC-62 was > 10 µM (inactive) throughout.

Consider `NNC(=O)CNC(=O)CSc1nnc(COc2ccc(Cl)cc2)n1-c1ccccc1`, for which the GI50 is 60.5 µM (inactive) with CCRF-CEM; over 100 µM with HCT-15; > 100 µM (inactive) in the assay with HL-60; > 100 µM (inactive) in the assay on M14; > 100 µM (inactive) in the assay with MDA-MB-435; > 100 µM (inactive) in the assay on MOLT-4. For the same compound, the GI50 in the assay with Malme-3M, with NCI-H23, in the assay on NCI-H460, with RXF 393, in the assay on SF-268 and in the assay with SF-539 was > 100 µM (inactive) in each case. For the same compound, the GI50 with SK-MEL-2, in the assay with SK-OV-3, with SW-620, in the assay with T47D, in the assay on U-251 and in the assay on UACC-257 was > 100 µM (inactive) each time. The GI50 in the assay on UACC-62 was > 100 µM (inactive).

On to `O=[N+]([O-])c1ccc(C2N3CCCCC3[C@H]3CCCCN23)cc1` (stereo not given in full), for which the GI50 with CCRF-CEM is > 100 µM (inactive); with HCT-15, over 100 µM; in the assay on HL-60 it was > 100 µM (inactive); in the assay on M14, > 100 µM (inactive); in the assay with MOLT-4 it was > 100 µM (inactive); with Malme-3M it was > 100 µM (inactive). For the same compound, the GI50 in the assay on NCI-H23, in the assay on NCI-H460, in the assay on RXF 393, with SF-268, in the assay on SF-539 and in the assay with SK-MEL-2 was > 100 µM (inactive) in each case. The GI50 with SK-OV-3, with SW-620, with U-251, in the assay on UACC-257 and in the assay with UACC-62 was > 100 µM (inactive) in each case.

For `S=c1[nH]c(=S)c2nnn(-c3ccccc3)c2[nH]1`, the GI50 in the assay on CCRF-CEM is > 100 µM (inactive); in the assay with HCT-15, over 100 µM; in the assay with HL-60 it was > 100 µM (inactive); with M14, > 100 µM (inactive); in the assay on MOLT-4 it was > 100 µM (inactive); in the assay on Malme-3M, > 100 µM (inactive). The GI50 in the assay on NCI-H23, in the assay on NCI-H460, in the assay with RXF 393, with SF-268, in the assay with SF-539 and in the assay on SK-MEL-2 was > 100 µM (inactive) throughout. The GI50 in the assay with SK-OV-3, in the assay on SW-620, with U-251, in the assay with UACC-257 and in the assay with UACC-62 was > 100 µM (inactive) in each case.

In the case of `O=C1OCc2nc3c(c(-c4ccccc4C(F)(F)F)c21)C(=O)OC3`, the GI50 is > 100 µM (inactive) in the assay with CCRF-CEM; over 100 µM in the assay on HCT-15; > 100 µM (inactive) in the assay with HL-60; > 100 µM (inactive) in the assay with M14; > 100 µM (inactive) with MOLT-4; > 100 µM (inactive) in the assay on Malme-3M. Besides, the GI50 in the assay with NCI-H23, with NCI-H460, with RXF 393, in the assay on SF-268, in the assay with SF-539 and with SK-MEL-2 was > 100 µM (inactive) each time. The GI50 with SK-OV-3, in the assay on SW-620, in the assay with U-251, with UACC-257 and with UACC-62 was > 100 µM (inactive) in each case.

Consider `O=C(NCc1ccccc1)C1C(=O)C(=O)N(Cc2ccccc2)C1=O` (stereo not given), for which the GI50 is > 100 µM (inactive) with CCRF-CEM; over 100 µM with HCT-15; > 100 µM (inactive) in the assay on HL-60; > 100 µM (inactive) in the assay on M14; > 100 µM (inactive) with MOLT-4; > 100 µM (inactive) with Malme-3M. Besides, the GI50 in the assay on NCI-H23, with NCI-H460, in the assay on RXF 393, in the assay with SF-268, with SF-539 and in the assay on SK-MEL-2 was > 100 µM (inactive) throughout. The GI50 in the assay on SK-OV-3, in the assay on SW-620, in the assay with U-251, in the assay with UACC-257 and in the assay with UACC-62 was > 100 µM (inactive) in each case.

Regarding `COc1ccc(C2C3=C(CCCC3=O)N(c3ccccc3)C3=C2C(=O)CCC3)cc1`, the GI50 in the assay on BT-549 was 29.4 µM (inactive); with CCRF-CEM, > 100 µM (inactive); in the assay with HCT-15 it was over 100 µM; in the assay on HL-60 it was > 100 µM (inactive); in the assay on M14 it was > 100 µM (inactive); in the assay on MOLT-4 it was > 100 µM (inactive). The GI50 in the assay on NCI-H23 is > 100 µM (inactive); in the assay with NCI-H460, > 100 µM (inactive); with RXF 393, 19.5 µM (inactive); in the assay on SF-268, 79.4 µM (inactive); with SF-539, > 100 µM (inactive); in the assay with SK-OV-3, 50.6 µM (inactive). Besides, the values for the GI50 with SW-620, with U-251 and with UACC-62 were > 100 µM (inactive), 75.7 µM (inactive) and 87.1 µM (inactive), respectively.

As to `O=C(NCc1ccccc1)c1cc2ccc(O)c(O)c2cn1`, the GI50 with CCRF-CEM was 32.1 µM (inactive); in the assay with HCT-15 it was 26.7 µM; in the assay with HL-60, 18.8 µM (inactive); in the assay with M14 it was 5.21 µM (inactive); in the assay on Malme-3M, 16.7 µM (inactive); in the assay on NCI-H23 it was 12.1 µM (inactive). Moreover, the GI50 with NCI-H460 was 21.7 µM (inactive); in the assay on RXF 393, 16.6 µM (inactive); in the assay with SF-268, 15.1 µM (inactive); in the assay on SF-539, 18.2 µM (inactive); in the assay on SK-MEL-2, 12.4 µM (inactive); in the assay with SK-OV-3, > 100 µM (inactive). Further, the GI50 in the assay with SW-620 was 21.4 µM (inactive); in the assay on U-251, 23.3 µM (inactive); in the assay with UACC-257, 15.6 µM (inactive); in the assay on UACC-62, 18.5 µM (inactive).

As for `O=Cn1c2ccccc2c2ccccc21`, the GI50 in the assay with CCRF-CEM was > 100 µM (inactive); with HCT-15, over 100 µM; with HL-60, > 100 µM (inactive); with M14 it was > 100 µM (inactive); in the assay on MOLT-4, > 100 µM (inactive); with Malme-3M it was > 100 µM (inactive). In addition, the GI50 in the assay with NCI-H23, in the assay on NCI-H460, with RXF 393, in the assay with SF-268, in the assay with SF-539 and with SK-MEL-2 was > 100 µM (inactive) throughout. Further, the GI50 with SK-OV-3, in the assay on SW-620, in the assay on U-251, in the assay with UACC-257 and in the assay on UACC-62 was > 100 µM (inactive) each time.
